Results taken from ChEMBL document CHEMBL4052697, “Chimeric analogs of human β-defensin 1 and θ-defensin disrupt pre-established bacterial biofilms” (2017).
In brackets after ≈: the same amount, converted by molar mass. Activity calls are given as the source filed them. The rule behind the calls is not given here. Positions of bridges follow the written chain, without caps; N, C: chain ends. Non-standard residues stand in square brackets, D forms with d. Residues, ends and D or L forms follow the SMILES beside them.

Experiments:
Assay type in all cases: functional
Staphylococcus aureus [1] = test: Antibiofilm activity against pre-established 36 hrs old bacterial biofilms of Staphylococcus aureus NCTC 8530 incubated for 4 hrs by XTT assay
Staphylococcus aureus [2] = test: Antibiofilm activity against pre-established 36 hrs old bacterial biofilms of Staphylococcus aureus NCTC 8530 incubated for 4 hrs by […] LIVE/DEAD BacLight staining based confocal microscopy
Escherichia coli [3] = test: Antibiofilm activity against pre-established 36 hrs old bacterial biofilms of Escherichia coli MG1655 incubated for 4 hrs Antibiofilm activity against pre-established 36 hrs old bacterial biofilms of Escherichia coli MG1655 incubated for 4 hrs by LIVE/DEAD BacLight staining based confocal microscopy
Escherichia coli [4] = test: Bactericidal activity against Escherichia coli MG1655 planktonic forms
Staphylococcus aureus [5] = test: Bactericidal activity against Staphylococcus aureus NCTC 8530 planktonic forms
Staphylococcus aureus [6] = test: Antibiofilm activity against pre-established 36 hrs old bacterial biofilms of Staphylococcus aureus NCTC 8530 assessed as reduction in number of viable bacterial cells incubated for 4 hrs by XTT assay
Escherichia coli [7] = test: Antibiofilm activity against pre-established 36 hrs old bacterial biofilms of Escherichia coli MG1655 incubated for 4 hrs by XTT assay

SMILES	MBEC (Staphylococcus aureus [1])	Activity (Staphylococcus aureus [2])	Activity (Escherichia coli [3])	MBC (Escherichia coli [4]) [µM]	MBC (Staphylococcus aureus [5]) [µM]	MBEC (Staphylococcus aureus [6])	MBEC (Escherichia coli [7]) [µM]
CC[C@H](C)[C@@H]1NC(=O)[C@H](CCCCN)NC(=O)[C@H]([C@@H](C)O)NC(=O)[C@H](Cc2ccccc2)NC(=O)[C@H]([C@@H](C)CC)NC(=O)[C@@H]2CCCN2C(=O)[C@@H](NC(=O)[C@H](C)N)CSSC[C@@H](C(=O)O)NC(=O)[C@H]([C@@H](C)CC)NC(=O)[C@@H](CCCNC(=N)N)NC(=O)[C@H](CCCNC(=N)N)NC(=O)CNC(=O)[C@@H]([C@@H](C)CC)NC(=O)[C@H](CCCNC(=N)N)NC(=O)[C@H](CCCCN)NC(=O)[C@H](C)NC(=O)[C@H](CCCCN)NC(=O)CNC(=O)[C@H](CCCNC(=N)N)NC(=O)[C@H](Cc2ccc(O)cc2)NC(=O)[C@H]([C@@H](C)O)NC(=O)CNC(=O)[C@H](CCC(N)=O)NC1=O	150 µM	Active	Active	1 (≈ 2.74 µg/mL)	2 (≈ 5.47 µg/mL)	–	–
CC[C@H](C)[C@@H]1NC(=O)[C@H](CCCCN)NC(=O)[C@H]([C@@H](C)O)NC(=O)[C@H](Cc2ccccc2)NC(=O)[C@H]([C@@H](C)CC)NC(=O)[C@@H]2CCCN2C(=O)[C@@H](NC(=O)[C@H](C)N)CSSC[C@@H](C(=O)N[C@@H](CCCNC(=N)N)C(=O)O)NC(=O)[C@H](CCCCN)NC(=O)[C@H](C)NC(=O)[C@H](CCCNC(=N)N)NC(=O)CNC(=O)[C@H](CCCNC(=N)N)NC(=O)[C@H](Cc2ccc(O)cc2)NC(=O)[C@H]([C@@H](C)O)NC(=O)CNC(=O)[C@H](CCC(N)=O)NC1=O (H-ACPIFTKIQGTYRGRAKCR-OH; disulfide 2-18)	–	–	–	5 (≈ 10.8 µg/mL)	5 (≈ 10.8 µg/mL)	Active	–
CC[C@@H](C)[C@H]1NC(=O)[C@H]2CCCN2C(=O)[C@H](NC(=O)[C@@H](C)N)CSSC[C@H](C(=O)O)NC(=O)[C@@H]([C@H](C)CC)NC(=O)[C@@H](CCCNC(=N)N)NC(=O)[C@@H](CCCNC(=N)N)NC(=O)CNC(=O)[C@@H]([C@H](C)CC)NC(=O)[C@@H](CCCNC(=N)N)NC(=O)[C@@H](CCCCN)NC(=O)[C@@H](C)NC(=O)[C@@H](CCCCN)NC(=O)CNC(=O)[C@@H](CCCNC(=N)N)NC(=O)[C@@H](Cc2ccc(O)cc2)NC(=O)[C@@H]([C@H](C)O)NC(=O)CNC(=O)[C@@H](CCC(N)=O)NC(=O)[C@@H]([C@H](C)CC)NC(=O)[C@@H](CCCCN)NC(=O)[C@@H]([C@H](C)O)NC(=O)[C@@H](Cc2ccccc2)NC1=O	200 µM	Active	Active	1 (≈ 2.74 µg/mL)	2 (≈ 5.47 µg/mL)	–	200
CC[C@@H](C)[C@H]1NC(=O)[C@H](CCCCN)NC(=O)[C@H]([C@@H](C)O)NC(=O)[C@H](Cc2ccccc2)NC(=O)[C@@H]([C@H](C)CC)NC(=O)[C@@H]2CCCN2C(=O)[C@@H](NC(=O)[C@H](C)N)CSSC[C@@H](C(=O)N[C@@H](CCCNC(=N)N)C(=O)O)NC(=O)[C@H](CCCCN)NC(=O)[C@H](C)NC(=O)[C@@H](CCCNC(=N)N)NC(=O)CNC(=O)[C@@H](CCCNC(=N)N)NC(=O)[C@H](Cc2ccc(O)cc2)NC(=O)[C@H]([C@@H](C)O)NC(=O)CNC(=O)[C@H](CCC(N)=O)NC1=O (H-ACP[dI]FTK[dI]QGTY[dR]G[dR]AKCR-OH; disulfide 2-18)	inactive	–	–	5 (≈ 10.8 µg/mL)	5 (≈ 10.8 µg/mL)	Active	–
